Assay results taken from patent US20060106032A1, “Synthesis of N2 - (substituted arylmethyl) -3- (substituted phenyl) indazoles as novel anti-angiogenic agents” (YUNG SHIN PHARM. IND. CO., LTD., priority 2004, published 2006).

Experiments:
[1] = test system: Human umbilical vein endothelial cells (HUVECs); assay: [3H]thymidine incorporation assay: VEGF-induced cell proliferation (DNA synthesis) of HUVECs; type: cell-based; conditions: VEGF 10 ng/mL; for activity on VEGF-induced cell proliferation of HUVECs compared with positive control YD-3: 1 μM
Description: (§1) Human umbilical vein endothelial cells were incubated in the absence (basal and control) or presence of tested sample (YD-3, 10, 15, 17, 21, 25, 26) with 30 μM, and then vascular endothelial growth factor (VEGF) was added (except for basal) to induce DNA synthesis, which was detected using [^3H] thymidine incorporation assay.
as §1, with “10” for “30”, “inducd” for “induce”, “assay. Means±S.E. (n=5) were presented.” for “assay.”
as §1, with “1” for “30”, “inducd” for “induce”, “assay. Means±S.E. (n=5) were presented.” for “assay.”
(§2) Human umbilical vein endothelial cells (HUVECS) were isolated according to the protocols from Jaffe et al. and obtained from human umbilical cord veins with collagenase and cultured in 75 cm^2 plastic flasks in M199 containing 20% FBS, 15 μg/mL endothelial cell growth supplements (ECGs). Confirmation of their identity as endothelial cells was provided by detection of CD31 (PECAM-1), assessed by immunostaining. Experiments were conducted on HUVECs that had used in passage 2 to 5.
Confluent HUVECs were trypsinized, suspended in DMEM supplemented with 20% FBS, and seeded at 1.0×10^4 cells per well into 96-well plates. After 24 h, the cells were washed twice with PBS and starved with 2% FBS-M199 medium for 24 h. The cells were incubated with or without indicated reagents and growth factors (VEGF; 10 ng/mL) for 24 h and harvested. Before the harvest, cells were incubated with [^3H]thymidine (2 μCi/mL) for 4 h, harvested with Filter-Mate (Packard), and incorporated radioactivity was determined.
The effect of tested compounds on VEGF-induced cell proliferation of HUVECs was assessed with the [^3H]thymidine incorporation assay, and the results were illustrated in FIG. 5-FIG. 7.

[2] = test system: Human umbilical vein endothelial cells (HUVECs); assay: VEGF-induced tube formation of HUVECs on Matrigel; type: cell-based; conditions: FIG. 8; for blockage of VEGF-induced tube formation of HUVECs: Matrigel-coated chamberslide
Description: FIG. 8 show photographs of the results of in vitro assay (inhibition of tube formation). Human umbilical vein endothelial cells were cultured onto chamberslide, which was precoated with Matrigel (10 mg/ml). Cells were treated without (basal and control) or with tested sample (YD-3, 10, 15, 17, 21, 25, 26) and then vascular endothelial growth factor (VEGF) was added to induce tube formation. All photographs were taken at 100×magnification.
as §2

[3] = test system: VEGF-induced angiogenesis in Matrigel plug; assay: In vivo Matrigel plug assay (neovascular formation, hemoglobin concentration); conditions: nude mice, FIG. 9; for anti-angiogenic activity in Matrigel plug assay (hemoglobin concentration): 150 ng/ml VEGF plug, oral, seven-day administration
Description: Nude mice were subcutaneously injected with a Matrigel plug containing 150 ng/ml vascular endothelial growth factor (VEGF). Vehicle or tested sample (YD-3, 10, 15, 17, 21, 25, 26) was orally administered into the mice. After a seven-day administration, the animals were euthanized and the plugs were cut of the mice for the measurement of angiogenic effect using the hemoglobin concentration as the parameter by means of a hemoglobin detection kit (Sigma). Means±S.E. (n=3) were presented. Nude mice (6 weeks of age) were given s.c. injections of 500 μL of Matrigel (Becton Dickinson, Bedford, Mass.) at 4° C. with or without YC-1 and growth factor (150 ng/mL VEGF). After injection, the Matrigel rapidly formed a plug. After 7 days, the skin of the mouse was easily pulled back to expose the Matrigel plug, which remained intact. After quantitative differences were noted and photographed, hemoglobin was measured, as an indication of blood vessel formation, using the Drabkin method (Drabkin reagent kit 525, Sigma, St. Louis, Mo.). The concentration of hemoglobin was calculated from a known amount of hemoglobin assayed in parallel. The in vivo Matrigel plug assay was used in this study to determine quantitative the anti-angiogenic effect of tested compounds.

angiogenesis = assay: Evaluation for anti-angiogenic activities (overall summary); conditions: summary statement
Description: 3-(4-Methylphenyl)-1H-indazole (10) and N^2-(substituted benzyl)-3-(4-methylphenyl)indazoles (15, 17, 21, 25, 26) were evaluated for anti-angiogenic activities.
In this study, 3-(4-methylphenyl)-1H-indazole (10) and five of the above mentioned N^2-regioisomers, namely, compounds 15, 17, 21, 25 and 26 were selected for evaluating their effects on VEGF-induced cell proliferation, on VEGF-induced tube formation of HUVECs in vitro, and on neovascular formation in vivo.

OCc1ccc(-c2c3ccccc3nn2Cc2ccco2)cc1 [Compound 40, {4-[2-(2-Furylmethyl)-2H-indazol-3-yl]phenyl]methanol]
melting point: 129 to 130 °C

CCOC(=O)c1ccc(-c2c3ccccc3nn2Cc2ccccc2)cc1 [Compound 28, Ethyl 4-(2-benzyl-2H-indazol-3-yl)benzoate]
melting point: 112 to 113 °C

CCOC(=O)c1ccc(-c2c3ccccc3nn2Cc2ccccc2F)cc1 [Compound 32, Ethyl 4-[2-(2-fluorobenzyl)-2H-indazol-3-yl]benzoate]
melting point: 94 to 96 °C

Cc1ccc(-c2nn(Cc3cccc(Cl)c3)c3ccccc23)cc1 [Compound 16, 1-(3-Chlorobenzyl)-3-(4-methylphenyl)-1H-indazole]
melting point: 66.6 to 68 °C

COC(=O)c1ccc(-c2c3ccccc3nn2Cc2ccc(F)cc2)cc1 [Compound 30, Methyl 4-[2-(4-fluorobenzyl)-2H-indazol-3-yl]benzoate]
melting point: 121 to 122 °C

CCOC(=O)c1ccc(-c2nn(Cc3ccccc3F)c3ccccc23)cc1 [Compound 31, Ethyl 4-[1-(2-fluorobenzyl)-1H-indazol-3-yl]benzoate]
melting point: 102 to 103 °C

COC(=O)c1ccc(-c2nn(Cc3ccco3)c3ccccc23)cc1 [Compound 33, Methyl 4-[1-(2-furylmethyl)-1H-indazol-3-yl]benzoate]
melting point: 99 to 101 °C

Cc1ccc(-c2c3ccccc3nn2Cc2ccccc2C)cc1 [Compound 23, 2-(2-Methylbenzyl)-3-(4-methylphenyl)-2H-indazole]
melting point: 125 to 128.8 °C

Cc1ccc(-c2nn(Cc3ccccc3C)c3ccccc23)cc1 [Compound 22, 1-(2-Methylbenzyl)-3-(4-methylphenyl)-1H-indazole]
melting point: 114.1 to 116.5 °C

Cc1ccc(Cn2nc(-c3ccc(C)cc3)c3ccccc32)cc1 [Compound 20, 1-(4-Methylbenzyl)-3-(4-methylphenyl)-1H-indazole]
melting point: 79.6 to 82.3 °C

OCc1ccc(-c2c3ccccc3nn2Cc2ccccc2)cc1 [Compound 39, [4-(2-Benzyl-2H-indazol-3-yl)phenyl]methanol]
melting point: 148 to 149 °C

CCOC(=O)c1ccc(-c2n[nH]c3ccccc23)cc1 [Compound 11, Ethyl 4-(1H-indazol-3-yl)benzoate]
melting point: 133 to 135 °C

O=C(O)c1ccc(-c2c3ccccc3nn2Cc2ccccc2)cc1 [Compound 35, 4-(2-Benzyl-2H-indazol-3-yl)benzoic acid]
melting point: 159 to 163 °C

COc1ccc(Cn2nc3ccccc3c2-c2ccc(C)cc2)cc1 [Compound 25, 2-(4-Methoxylbenzyl)-3-(4-methylphenyl)-2H-indazole]
activity on VEGF-induced cell proliferation of HUVECs compared with positive control YD-3 [1]: better activity than positive control YD-3
inhibitory effect on VEGF-induced cell proliferation of HUVECs ([3H]thymidine incorporation) ([1]; 10 μM, FIG. 6): significant inhibitory effect
inhibitory effect on VEGF-induced cell proliferation of HUVECs ([3H]thymidine incorporation) ([1]; 30 μM, FIG. 5): significant inhibitory effect
inhibitory activity on tube formation compared with other tested compounds and YD-3 [2]: more potent than other tested compounds and YD-3
blockage of VEGF-induced tube formation of HUVECs [2]: significant blockage
anti-angiogenic activity in Matrigel plug assay (hemoglobin concentration) [3]: significant anti-angiogenic activities
anti-angiogenic potency in Matrigel plug assay compared with positive control YD-3 [3]: superior potency than the positive control YD-3
anti-angiogenic activity (overall) (angiogenesis): significant anti-angiogenic activity
melting point: 113.6 to 115 °C

Cc1ccc(-c2c3ccccc3nn2Cc2ccc(Cl)cc2)cc1 [Compound 15, 2-(4-Chlorobenzyl)-3-(4-methylphenyl)-2H-indazole]
activity on VEGF-induced cell proliferation of HUVECs compared with positive control YD-3 [1]: better activity than positive control YD-3
inhibitory effect on VEGF-induced cell proliferation of HUVECs ([3H]thymidine incorporation) ([1]; 10 μM, FIG. 6): significant inhibitory effect
inhibitory effect on VEGF-induced cell proliferation of HUVECs ([3H]thymidine incorporation) ([1]; 30 μM, FIG. 5): significant inhibitory effect
inhibitory activity on tube formation compared with other tested compounds and YD-3 [2]: more potent than other tested compounds and YD-3
blockage of VEGF-induced tube formation of HUVECs [2]: significant blockage
anti-angiogenic activity in Matrigel plug assay (hemoglobin concentration) [3]: significant anti-angiogenic activities
anti-angiogenic potency in Matrigel plug assay compared with positive control YD-3 [3]: superior potency than the positive control YD-3
anti-angiogenic activity (overall) (angiogenesis): significant anti-angiogenic activity
melting point: 107.4 to 109.5 °C

COC(=O)c1ccc(-c2c3ccccc3nn2Cc2ccco2)cc1 [Compound 34, Methyl 4-[2-(2-furylmethyl)-2H-indazol-3-yl]benzoate]
melting point: 140 to 143 °C

COC(=O)c1ccc(-c2nn(Cc3ccc(F)cc3)c3ccccc23)cc1 [Compound 29, Methyl 4-[1-(4-fluorobenzyl)-1H-indazol-3-yl]benzoate]
melting point: 118 to 120 °C

Cc1ccc(-c2c3ccccc3nn2Cc2cccc(Cl)c2)cc1 [Compound 17, 2-(3-Chlorobenzyl)-3-(4-methylphenyl)-2H-indazole]
inhibitory effect on VEGF-induced cell proliferation of HUVECs ([3H]thymidine incorporation) ([1]; 10 μM, FIG. 6): significant inhibitory effect
inhibitory effect on VEGF-induced cell proliferation of HUVECs ([3H]thymidine incorporation) ([1]; 30 μM, FIG. 5): significant inhibitory effect
blockage of VEGF-induced tube formation of HUVECs [2]: significant blockage
anti-angiogenic activity in Matrigel plug assay (hemoglobin concentration) [3]: significant anti-angiogenic activities
melting point: 98 to 100 °C

Cc1ccc(-c2c3ccccc3nn2Cc2ccccc2)cc1 [Compound 26, 2-Benzyl-3-(4-methylphenyl)-2H-indazole]
inhibitory effect on VEGF-induced cell proliferation of HUVECs ([3H]thymidine incorporation) ([1]; 10 μM, FIG. 6): significant inhibitory effect
inhibitory effect on VEGF-induced cell proliferation of HUVECs ([3H]thymidine incorporation) ([1]; 30 μM, FIG. 5): significant inhibitory effect
blockage of VEGF-induced tube formation of HUVECs [2]: significant blockage
anti-angiogenic activity in Matrigel plug assay (hemoglobin concentration) [3]: significant anti-angiogenic activities
melting point: 110.7 to 111.3 °C

Cc1ccc(-c2nn(Cc3ccc(Cl)cc3)c3ccccc23)cc1 [Compound 14, 1-(4-Chlorobenzyl)-3-(4-methylphenyl)-1H-indazole]
melting point: 79.9 to 82.3 °C

Cc1ccc(-c2nn(Cc3ccccc3Cl)c3ccccc23)cc1 [Compound 18, 1-(2-Chlorobenzyl)-3-(4-methylphenyl)-1H-indazole]
melting point: 77.6 to 78.8 °C

O=C(NO)c1ccc(-c2c3ccccc3nn2Cc2ccccc2)cc1 [Compound 38, 4-(2-Benzyl-2H-indazol-3-yl)-N-hydroxybenzamide]
melting point: 201 to 203 °C

O=C(O)c1ccc(-c2c3ccccc3nn2Cc2ccc(F)cc2)cc1 [Compound 36, 4-[2-(4-Fluorobenzyl)-2H-indazol-3-yl]benzoic acid]
melting point: 237 to 239 °C

Cc1ccc(-c2c3ccccc3nn2Cc2ccccc2Cl)cc1 [Compound 19, 2-(2-Chlorobenzyl)-3-(4-methylphenyl)-2H-indazole]
melting point: 131.3 to 137.8 °C

Cc1ccc(-c2n[nH]c3ccccc23)cc1 [Compound 10, 3-(4-Methylphenyl)-1H-indazole]
inhibitory effect on VEGF-induced cell proliferation of HUVECs ([3H]thymidine incorporation) ([1]; 10 μM, FIG. 6): significant inhibitory effect
inhibitory effect on VEGF-induced cell proliferation of HUVECs ([3H]thymidine incorporation) ([1]; 30 μM, FIG. 5): significant inhibitory effect
melting point: 106 to 107 °C
